Test results from patent US5547845A (Duke University, priority 1994, dated 1996).
Entries after “also recorded” stand apart in the source; their conditions may differ. Like-named read-outs stand apart in the source and are kept apart here.

How the values were obtained:
[1] = target: T1, human D1 dopamine receptor (clone HGL26) (Homo sapiens, UniProt P21728); experiment: Competition for [^125 I]SCH23982 binding to membranes of COS-7 cells expressing HGL26; set-up: a 2.3 kb EcoRI-XbaI restriction fragment containing the open reading frame was subcloned into the expression vector pCMV5; expressed in transfected cells; host or cells: African green monkey kidney COS-7 cells, transient, pCMV5
[2] = target: T1, human D1 dopamine receptor (clone HGL26); experiment: Adenylyl cyclase activity in membranes of mouse fibroblasts [L-M(TK^-)] expressing HGL26; format: biochemical; conditions: for block of dopamine-stimulated adenylyl cyclase activity: dopamine 100 μM, SCH23390 and raclopride 1 μM each
[3] = target: T2, human D1 dopamine receptor (clone HGR213-1) (Homo sapiens, UniProt P21728); format: binding; set-up: expressed in transfected cells; host or cells: monkey kidney COS-7 cells, transient, PBC12BI; conditions: FIG. 4 competition curves
[4] = target: T2, human D1 dopamine receptor (clone HGR213-1); experiment: cAMP accumulation in human embryonic kidney 293 cells transfected with HGR213-1
[5] = test system: untransfected COS-7 cells; experiment: Specific binding of [^3 H]SCH23390 to untransfected COS-7 cells; set-up: species or system monkey; conditions: data not shown
Procedure: Membranes were prepared by homogenizing cells with a ConTorque homogenizer at 4° C. in TEM buffer. The homogenate was centrifuged at 800 g for 10 min and the pellet was subjected to a second homogenization and centrifugation. Supernatants were pooled and centrifuged at 100,000 g for 1 h. The pellet was then resuspended in TEM buffer at appropriate protein concentration and stored in small aliquots at -70° C. […] Binding was initiated by the addition of membrane preparation (20-30 μg protein) and carried on at 30° C. for 1 h. Nonspecific binding was defined in the presence of 10 μM (+)Butaclamol. The samples were filtered through glass fiber filters (Schleicher and Schuell No.32) and washed three times with 4 ml ice-cold 10 mM Tris pH 7.4. The radioactivity retained on the filter was counted using a Beckman LS6800 scintillation counter. […] See J. Bunzow et al., Nature 336,783 (1988). […] A LIGAND computer program was used for data analysis and curve fitting.

[6] = target: T1, human D1 dopamine receptor (clone HGL26); experiment: Saturation binding of [^125 I]SCH23982 to membranes of COS-7 cells expressing HGL26; set-up: a 2.3 kb EcoRI-XbaI restriction fragment containing the open reading frame was subcloned into the expression vector pCMV5; expressed in transfected cells; host or cells: African green monkey kidney COS-7 cells, transient, pCMV5; conditions: transfected COS-7 membranes vs antisense construct
Procedure: To identify the protein encoded by genomic clone HGL26, a 2.3 kb EcoRI-XbaI restriction fragment containing the open reading frame was subcloned into the expression vector pCMV5 and transiently transfected into African green monkey kidney (COS-7) cells. See Andersson, S. et al., J. Biol. Chem. 264, 8222-8229 (1989). The DEAE-dextran method was used for transient transfection of COS-7 cells. See Cullen, B. Meth. Enzymol. 152, 684-704 (1987). After 48 hours, transfected cells were lysed and homogenized in ice-cold lysis buffer (10 mM Tris HCl, pH 7.4, 5 mM EDTA). The homogenate was centrifuged at 43,000 g for 30 min at 4° C. The resulting pellet was resuspended in lysis buffer, re-homogenized, and re-centrifuged. This pellet was resuspended in an assay buffer containing 50 mM Tris HCl, pH 7.4, 100 mM NaCl, 5 mM EDTA.
See Sidhu, A. et al., J. Eur. J. Pharmacol. 128, 213-220 (1986).

α1-adrenergic receptor = conditions: α1-adrenergic receptor-transfected COS-7 cells; data not shown
[7] = ~0.3 nM [^125 I]SCH23982, 1 hr, room temperature, means of 2-5 independent determinations, one-site model, read-out: Kd (apparent equilibrium dissociation constant) for [^125 I]SCH23982 binding sites

T2 sequence (P21728 whole entry): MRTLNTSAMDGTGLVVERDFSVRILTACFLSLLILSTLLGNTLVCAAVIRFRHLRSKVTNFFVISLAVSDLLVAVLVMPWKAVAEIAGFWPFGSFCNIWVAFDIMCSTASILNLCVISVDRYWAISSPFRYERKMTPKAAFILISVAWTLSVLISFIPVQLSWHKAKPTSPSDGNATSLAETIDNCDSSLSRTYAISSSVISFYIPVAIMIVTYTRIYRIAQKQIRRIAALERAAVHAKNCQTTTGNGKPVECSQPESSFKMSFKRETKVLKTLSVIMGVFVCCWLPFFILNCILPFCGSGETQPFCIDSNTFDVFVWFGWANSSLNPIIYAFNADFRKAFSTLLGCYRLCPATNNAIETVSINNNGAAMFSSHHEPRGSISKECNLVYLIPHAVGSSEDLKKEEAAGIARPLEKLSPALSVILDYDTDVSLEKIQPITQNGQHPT
T1 sequence (P21728 whole entry, the tested form may be a part): as the sequence (P21728 whole entry) above

CCN1CCC[C@H]1CNC(=O)c1c(O)c(Cl)cc(Cl)c1OC (racemic) [raclopride]
Kd [1, 7]: > 72000 nM
block of dopamine-stimulated adenylyl cyclase activity [2]: not by the D2 antagonist raclopride

CN1CCc2cc(Cl)c(O)cc2[C@@H](c2ccccc2)C1 [SCH23390]
potency in competition with [^3 H]SCH23390 (in words) [3]: most potent
rank order of ligand potency [3]: SCH23390<(+)Butaclamol>Flupenthixol>>Haloperidol
block of dopamine-stimulated adenylyl cyclase activity [2]: blocked
antagonism of agonist-stimulated cAMP production [4]: blocked; also recorded: antagonized

Oc1cc2c(cc1O)C(c1ccccc1)CNCC2 (stereo not drawn) [SKF38393]
stimulation of adenylyl cyclase activity (in words) ([2]; SKF38393 and quinpirole, 1 μM each): also stimulated enzyme activity

Oc1ccc(C2CNCCc3c2cc(O)c(O)c3Cl)cc1 (stereo not drawn) [SKF82526]
potency in competition with [^3 H]SCH23390 (in words) [3]: most potent

CN1CCc2cc(Cl)c(O)cc2C(c2ccccc2)C1 (stereo not drawn) [[^3 H]SCH23390]
specific binding to untransfected cells [5]: no specific binding

CN1CCc2cc([125I])c(O)cc2[C@@H](c2ccccc2)C1 [[^125 I]SCH23982]
increase in specific binding compared to cells transfected with an antisense construct [6]: 10- to 30 fold

C=CCc1ccccc1OCC(O)CNC(C)C (stereo not drawn) [alprenolol]
Kd [1]: 16000 nM

OCCN1CCN(CC/C=C2/c3ccccc3Sc3ccc(C(F)(F)F)cc32)CC1 [cis-flupenthixol]
rank order of ligand potency [3]: SCH23390<(+)Butaclamol>Flupenthixol>>Haloperidol

OCCC1CCN(CC/C=C2/c3ccc(F)cc3Sc3ccc(C(F)(F)F)cc32)CC1 [cis-piflutixol]
Kd [1, 7]: 0.2 nM

CNC[C@H](O)c1ccc(O)c(O)c1 [epinephrine]
stimulation of phosphatidylinositol (PI) metabolism (α1-adrenergic receptor): potently evoked this response

O=C(CCCN1CCC2(CC1)C(=O)NCN2c1ccccc1)c1ccc(F)cc1 [spiperone]
Kd [1]: 220 nM
